{
  "source": "ChEMBL document CHEMBL3997763",
  "about": "(Medchemcomm, 2016)",
  "key": {"[1]": {"molecular_target": "T1, 3-hydroxy-3-methylglutaryl-coenzyme A reductase (Homo sapiens) (UniProt P04035)", "T1 sequence (whole entry)": "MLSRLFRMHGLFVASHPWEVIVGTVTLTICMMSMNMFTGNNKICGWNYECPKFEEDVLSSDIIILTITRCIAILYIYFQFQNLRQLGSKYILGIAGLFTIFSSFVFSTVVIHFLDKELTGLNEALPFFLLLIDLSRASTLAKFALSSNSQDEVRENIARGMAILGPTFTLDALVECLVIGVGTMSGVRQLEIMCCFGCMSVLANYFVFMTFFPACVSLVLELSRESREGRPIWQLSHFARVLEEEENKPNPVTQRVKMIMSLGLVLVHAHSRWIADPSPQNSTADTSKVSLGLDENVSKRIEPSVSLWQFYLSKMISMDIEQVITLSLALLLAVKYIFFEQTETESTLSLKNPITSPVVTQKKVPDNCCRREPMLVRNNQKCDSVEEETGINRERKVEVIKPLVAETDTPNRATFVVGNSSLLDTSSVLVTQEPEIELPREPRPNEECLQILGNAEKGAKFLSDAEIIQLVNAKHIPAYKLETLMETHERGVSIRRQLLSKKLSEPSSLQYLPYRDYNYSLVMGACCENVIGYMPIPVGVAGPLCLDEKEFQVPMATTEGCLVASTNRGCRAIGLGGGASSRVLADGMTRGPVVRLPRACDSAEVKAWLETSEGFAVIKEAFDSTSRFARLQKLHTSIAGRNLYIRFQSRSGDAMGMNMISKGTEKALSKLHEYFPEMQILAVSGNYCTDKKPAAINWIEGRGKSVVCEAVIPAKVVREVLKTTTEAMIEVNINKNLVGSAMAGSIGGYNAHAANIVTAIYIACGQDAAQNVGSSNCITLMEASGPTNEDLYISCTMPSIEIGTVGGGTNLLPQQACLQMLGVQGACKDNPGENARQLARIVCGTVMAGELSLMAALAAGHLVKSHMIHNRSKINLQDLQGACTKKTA", "assay": "Inhibition of human HMG-CoA reductase catalytic domain at 10 uM using HMG-CoA as substrate in presence of NADPH by colorimetric method relative to control"}, "Rattus norvegicus [2]": {"species": "Rattus norvegicus", "assay": "animal or person", "format": "functional", "settings": "Charles Foster, po, 18 h", "description": "Antihyperlipidemic activity in triton WR-1339 induced Charles Foster rat hyperlipidemia model assessed as inhibition of total cholesterol level in serum at 100 mg/kg, po administered simultaneously with triton WR-1339 after 18 hrs by enzymatic method relative to control"}, "Rattus norvegicus [3]": {"species": "Rattus norvegicus", "assay": "animal or person", "format": "functional", "settings": "Charles Foster, po, 18 h", "remark": "listed apart in the source", "description": "Antihyperlipidemic activity in triton WR-1339 induced Charles Foster rat hyperlipidemia model assessed as inhibition of phospholipid level in serum at 100 mg/kg, po administered simultaneously with triton WR-1339 after 18 hrs by enzymatic method relative to control"}, "Rattus norvegicus [4]": {"species": "Rattus norvegicus", "assay": "animal or person", "format": "functional", "settings": "Charles Foster, po, 18 h", "remark": "listed apart in the source", "description": "Antihyperlipidemic activity in triton WR-1339 induced Charles Foster rat hyperlipidemia model assessed as inhibition of triglyceride level in serum at 100 mg/kg, po administered simultaneously with triton WR-1339 after 18 hrs by enzymatic method relative to control"}, "Rattus norvegicus [5]": {"test_system": "Rattus norvegicus", "assay": "Antihyperlipidemic activity in triton WR-1339 induced Charles Foster rat hyperlipidemia model assessed as increase in HDL-C level in serum at 50 mg/kg, po administered simultaneously with triton WR-1339 after 18 hrs by enzymatic method relative to control", "format": "functional"}, "Rattus norvegicus [6]": {"test_system": "Rattus norvegicus", "assay": "Antihyperlipidemic activity in triton WR-1339 induced Charles Foster rat hyperlipidemia model assessed as inhibition of triglyceride level in serum at 50 mg/kg, po administered simultaneously with triton WR-1339 after 18 hrs by enzymatic method relative to control", "format": "functional"}, "Rattus norvegicus [7]": {"test_system": "Rattus norvegicus", "assay": "Antihyperlipidemic activity in triton WR-1339 induced Charles Foster rat hyperlipidemia model assessed as increase in HDL-C level in serum at 100 mg/kg, po administered simultaneously with triton WR-1339 after 18 hrs by enzymatic method relative to control", "format": "functional"}, "Rattus norvegicus [8]": {"test_system": "Rattus norvegicus", "assay": "Toxicity in HFD-induced Charles Foster rat chronic hyperlipidemia model assessed as food intake at 100 mg/kg administered via oral gavage for 30 days simultaneously with high fat diet (reference value: 9.81 +/- 0.61 g/day)", "format": "organism-based", "settings": "in vivo, 720 h"}, "Rattus norvegicus [9]": {"test_system": "Rattus norvegicus", "assay": "Hypolipidemic activity in HFD-induced Charles Foster rat chronic hyperlipidemia model assessed as reduction in serum triglyceride level at 100 mg/kg administered via oral gavage for 30 days simultaneously with high fat diet by enzymatic method relative to HFD treated vehicle", "format": "functional", "settings": "720 h"}, "Rattus norvegicus [10]": {"test_system": "Rattus norvegicus", "assay": "Hypolipidemic activity in HFD-induced Charles Foster rat chronic hyperlipidemia model assessed as reduction in serum AST level at 100 mg/kg administered via oral gavage for 30 days simultaneously with high fat diet by colorimetric method relative to HFD treated vehicle", "format": "functional", "settings": "720 h"}, "Rattus norvegicus [11]": {"test_system": "Rattus norvegicus", "assay": "Hypolipidemic activity in HFD-induced Charles Foster rat chronic hyperlipidemia model assessed as reduction in serum ALT level at 100 mg/kg administered via oral gavage for 30 days simultaneously with high fat diet by colorimetric method relative to HFD treated vehicle", "format": "functional", "settings": "720 h"}, "Rattus norvegicus [12]": {"test_system": "Rattus norvegicus", "assay": "Hypolipidemic activity in HFD-induced Charles Foster rat chronic hyperlipidemia model assessed as reduction in liver total cholesterol level at 100 mg/kg administered via oral gavage for 30 days simultaneously with high fat diet by enzymatic method relative to HFD treated vehicle", "format": "functional", "settings": "720 h"}, "Rattus norvegicus [13]": {"test_system": "Rattus norvegicus", "assay": "Hypolipidemic activity in HFD-induced Charles Foster rat chronic hyperlipidemia model assessed as reduction in liver triglyceride level at 100 mg/kg administered via oral gavage for 30 days simultaneously with high fat diet by enzymatic method relative to HFD treated vehicle", "format": "functional", "settings": "720 h"}, "Rattus norvegicus [14]": {"test_system": "Rattus norvegicus", "assay": "Hypolipidemic activity in HFD-induced Charles Foster rat chronic hyperlipidemia model assessed as increase in fecal excretion of cholic acid at 100 mg/kg administered via oral gavage for 30 days simultaneously with high fat diet by enzymatic method relative to HFD treated vehicle", "format": "functional"}, "Rattus norvegicus [15]": {"test_system": "Rattus norvegicus", "assay": "Hypolipidemic activity in HFD-induced Charles Foster rat assessed as reduction in serum VLDL-TC at 100 mg/kg administered as single dose via oral gavage for 30 days simultaneously with high fat diet", "format": "functional, organism-based"}, "Rattus norvegicus [16]": {"test_system": "Rattus norvegicus", "assay": "Hypolipidemic activity in HFD-induced Charles Foster rat assessed as reduction in serum LDL-TG at 100 mg/kg administered as single dose via oral gavage for 30 days simultaneously with high fat diet", "format": "functional, organism-based"}, "Rattus norvegicus [17]": {"test_system": "Rattus norvegicus", "assay": "Hypolipidemic activity in HFD-induced Charles Foster rat assessed as increase in serum HDL-TC at 100 mg/kg administered as single dose via oral gavage for 30 days simultaneously with high fat diet", "format": "functional, organism-based"}, "Rattus norvegicus [18]": {"test_system": "Rattus norvegicus", "assay": "Hypolipidemic activity in HFD-induced Charles Foster rat assessed as increase in serum HDL-TG at 100 mg/kg administered as single dose via oral gavage for 30 days simultaneously with high fat diet", "format": "functional, organism-based"}, "Rattus norvegicus [19]": {"test_system": "Rattus norvegicus", "assay": "Hypolipidemic activity in HFD-induced Charles Foster rat assessed as inhibition of hepatic HMG-CoA reductase activity by measuring […] at 100 mg/kg administered as single dose via oral gavage for 30 days simultaneously with high fat diet by colorimetric method", "format": "functional, organism-based"}, "[20]": {"assay": "Stability of the compound in simulated gastric fluid at 10 uM up to 60 mins by LC-MS/MS analysis"}, "[21]": {"assay": "Stability of the compound in simulated intestinal fluid at 10 uM up to 120 mins by LC-MS/MS analysis"}, "[22]": {"assay": "Apparent oral volume of distribution in Sprague-Dawley rat at 100 mg/kg administered as single dose by LC-MS/MS analysis", "format": "ADME, organism-based", "settings": "in vivo"}, "Albumin": {"molecular_target": "Albumin (Bos taurus, UniProt P02769)", "sequence (P02769 whole entry)": "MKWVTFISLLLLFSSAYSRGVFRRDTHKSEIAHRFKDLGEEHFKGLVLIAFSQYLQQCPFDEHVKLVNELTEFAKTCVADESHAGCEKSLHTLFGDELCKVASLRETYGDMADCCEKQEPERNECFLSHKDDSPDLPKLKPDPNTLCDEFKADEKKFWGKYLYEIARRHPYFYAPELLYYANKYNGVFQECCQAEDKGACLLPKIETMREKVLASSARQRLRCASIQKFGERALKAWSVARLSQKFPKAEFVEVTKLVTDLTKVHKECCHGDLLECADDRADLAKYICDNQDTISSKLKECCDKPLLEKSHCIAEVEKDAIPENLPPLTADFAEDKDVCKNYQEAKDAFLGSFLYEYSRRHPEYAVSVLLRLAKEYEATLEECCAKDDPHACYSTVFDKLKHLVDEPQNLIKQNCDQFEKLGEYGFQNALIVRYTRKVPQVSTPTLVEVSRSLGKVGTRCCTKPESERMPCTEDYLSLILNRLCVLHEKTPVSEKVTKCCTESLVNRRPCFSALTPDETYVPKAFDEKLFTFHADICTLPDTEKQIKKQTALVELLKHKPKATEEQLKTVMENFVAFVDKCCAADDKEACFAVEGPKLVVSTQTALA", "assay": "Binding affinity to bovine serum albumin by fluorescence quenching method", "format": "ADME", "settings": "cattle, isolated protein"}, "Rattus norvegicus [23]": {"test_system": "Rattus norvegicus", "assay": "Antihyperlipidemic activity in po dosed triton WR-1339 induced Charles Foster rat hyperlipidemia model assessed as inhibition of phospholipid level in serum administered simultaneously with triton WR-1339 after 18 hrs by enzymatic method relative to control", "format": "functional, organism-based"}},
  "note": "Active and inactive are the calls of the source. The rule behind the calls is not given here.",
  "data": [
    {"smiles": "COc1ccc(-c2cc3cc(C(c4c[nH]c5ccccc45)c4c[nH]c5ccccc45)cc(C(C)(C)C)c3oc2=O)cc1OC", "values": [
      {"measurement": "inhibition", "setting": "[1]", "value": 56, "unit": "%"},
      {"measurement": "inhibition in vivo at 100 mg/kg", "setting": "Rattus norvegicus [2]", "value": 32, "unit": "%"},
      {"measurement": "inhibition in vivo at 100 mg/kg", "setting": "Rattus norvegicus [3]", "value": 33, "unit": "%"},
      {"measurement": "inhibition in vivo at 100 mg/kg", "setting": "Rattus norvegicus [4]", "value": 33, "unit": "%"},
      {"measurement": "Activity", "setting": "Rattus norvegicus [5]", "value": 15, "unit": "%"},
      {"measurement": "inhibition in vivo at 50 mg/kg", "setting": "Rattus norvegicus [6]", "value": 20, "unit": "%"},
      {"measurement": "Activity", "setting": "Rattus norvegicus [7]", "value": 23, "unit": "%"},
      {"measurement": "Activity", "setting": "Rattus norvegicus [8]", "value": 9.63, "unit": "g/day"},
      {"measurement": "inhibition in vivo at 100 mg/kg", "setting": "Rattus norvegicus [9]", "value": 26, "unit": "%"},
      {"measurement": "inhibition in vivo at 100 mg/kg", "setting": "Rattus norvegicus [10]", "value": 28, "unit": "%"},
      {"measurement": "inhibition in vivo at 100 mg/kg", "setting": "Rattus norvegicus [11]", "value": 26, "unit": "%"},
      {"measurement": "inhibition in vivo at 100 mg/kg", "setting": "Rattus norvegicus [12]", "value": 27, "unit": "%"},
      {"measurement": "inhibition in vivo at 100 mg/kg", "setting": "Rattus norvegicus [13]", "value": 29, "unit": "%"},
      {"measurement": "Activity", "setting": "Rattus norvegicus [14]", "value": 31, "unit": "%"},
      {"measurement": "Activity", "setting": "Rattus norvegicus [15]", "value": "Active"},
      {"measurement": "Activity", "setting": "Rattus norvegicus [16]", "value": "Active"},
      {"measurement": "Activity", "setting": "Rattus norvegicus [17]", "value": "Active"},
      {"measurement": "Activity", "setting": "Rattus norvegicus [18]", "value": "Active"},
      {"measurement": "inhibition", "setting": "Rattus norvegicus [19]", "value": "Active"},
      {"measurement": "Stability", "setting": "[20]", "value": "Stable"},
      {"measurement": "Stability", "setting": "[21]", "value": "Stable"},
      {"measurement": "Vd/F", "setting": "[22]", "value": 684, "unit": "L/kg"},
      {"measurement": "Activity", "setting": "Albumin", "value": "Active"},
      {"measurement": "inhibition", "setting": "Rattus norvegicus [23]", "value": "Dose-dependent effect"}
    ]}
  ]
}
